In patent US20220107317A1, “COMPOSITIONS AND METHODS FOR DIAGNOSING AND TREATING CORONAVIRUS DISEASE 2019” (priority 2020, published 2022):

Key:
[1] = system: nCoV-S Luc pseudovirus of SARS-CoV-2; type: cell-based
SARS-CoV-2 spike protein = SARS-CoV-2 spike protein (Severe acute respiratory syndrome coronavirus 2, UniProt P0DTC2)
[2] = target: SARS-CoV-2 spike protein (SARS-CoV-2), P0DTC2

For “DLSGFVRPDPVIISSPLSTFFSDAGYKSLLKITMTQSTVPLNLIRVHLMVAVEG HLFQKSFQASPNLAYTFIWDKTDAYGQRVYGLSDAVVSVGFEYETCPSLILW EKRTALLQGFELD [T2 peptide]”, the “inhibition of infection of OECM1 cells” value [1] was “significantly inhibited”, the biosensing sensitivity (SARS-CoV-2 spike protein) was 0.1 ng in 1 μL per test and the “concentration of SARS-CoV-2 spike protein at which binding activity is shown” value (SARS-CoV-2 spike protein) was 0.1 pM.

B1: T2 peptide (peptide)
peptide: DLSGFVRPDPVIISSPLSTFFSDAGYKSLLKITMTQSTVPLNLIRVHLMVAVEGHLFQKSFQASPNLAYTFIWDKTDAYGQRVYGLSDAVVSVGFEYETCPSLILWEKRTALLQGFELD
modifications: not checked
Molecule B1 has a biosensing sensitivity (ng in 1 µL per test) [2] of 0.1 and a lowest spike protein concentration showing binding activity [2] of 0.1 pM.
